Converted amounts (≈) assume the structure as drawn.
Legend:
physchem = details: buffer, pH 7.4
[1] = buffer

Compound	solubility (physchem)	solubility [1]
Fc1cnc(Nc2ccc(-c3nnn[nH]3)cc2)nc1Nc1ccccc1Cl	0.049 mg/mL (≈ 128 µM)	–
Clc1ccccc1Nc1ccnc(Nc2ccc(-c3nnn[nH]3)cc2)n1	0.049 mg/mL (≈ 134 µM)	–
Oc1cc(Nc2ncc(F)c(Nc3ccccc3Cl)n2)ccc1-c1nnn[nH]1	0.049 mg/mL (≈ 123 µM)	–
Clc1ccccc1Nc1nc(Nc2ccc(-c3nnn[nH]3)cc2)ncc1Cl	0.049 mg/mL (≈ 123 µM)	–
O=C(O)c1ccc(Nc2nccc(Nc3ccccc3F)n2)cc1	–	Insoluble
O=C(O)c1ccc(Nc2nccc(Nc3ccccc3Cl)n2)cc1O	–	Insoluble
O=C(O)c1ccc(Nc2nccc(Nc3ccccc3Cl)n2)cc1	–	Insoluble
O=C(O)c1ccc(Nc2ncc(F)c(Nc3ccccc3C(=O)O)n2)cc1	–	Insoluble

Reference: ChEMBL document CHEMBL2169801, “Development of o-chlorophenyl substituted pyrimidines as exceptionally potent aurora kinase inhibitors” (J Med Chem, 2012)
